Assay results as given in the supplement of paper PMC13380429.

Legend:
Conditions in all cases: 72 h
Caco-2 [1] = assay: cell viability relative to DMSO; higher = less toxic
Calu-3 [2] = assay: as above
HepG2 [3] = assay: as above
U2OS [4] = assay: as above
Vero E6 [5] = assay: as above
Calu-3 [6] = assay: relative viability EC50 (midpoint between 100% and the lowest measured viability); higher = less toxic
U2OS [7] = assay: as above
Vero E6 [8] = assay: as above
Caco-2 [9] = assay: drug sensitivity score (DSS) for viability; higher = more toxic; extreme values may be limits of the assay
Calu-3 [10] = assay: as above
HepG2 [11] = assay: as above
U2OS [12] = assay: as above
Vero E6 [13] = assay: as above
HepG2 [14] = assay: relative viability EC50 (midpoint between 100% and the lowest measured viability); higher = less toxic

SMILES	cell viability (Caco-2 [1]; 1 nM) [%]	cell viability (Caco-2 [1]; 10 nM) [%]	cell viability (Caco-2 [1]; 100 nM) [%]	cell viability (Caco-2 [1]; 1000 nM) [%]	cell viability (Caco-2 [1]; 10000 nM) [%]	cell viability (Calu-3 [2]; 1 nM) [%]	cell viability (Calu-3 [2]; 10 nM) [%]	cell viability (Calu-3 [2]; 100 nM) [%]	cell viability (Calu-3 [2]; 1000 nM) [%]	cell viability (Calu-3 [2]; 10000 nM) [%]	cell viability (HepG2 [3]; 1 nM) [%]	cell viability (HepG2 [3]; 10 nM) [%]	cell viability (HepG2 [3]; 100 nM) [%]	cell viability (HepG2 [3]; 1000 nM) [%]	cell viability (HepG2 [3]; 10000 nM) [%]	cell viability (U2OS [4]; 1 nM) [%]	cell viability (U2OS [4]; 10 nM) [%]	cell viability (U2OS [4]; 100 nM) [%]	cell viability (U2OS [4]; 1000 nM) [%]	cell viability (U2OS [4]; 10000 nM) [%]	cell viability (Vero E6 [5]; 1 nM) [%]	cell viability (Vero E6 [5]; 10 nM) [%]	cell viability (Vero E6 [5]; 100 nM) [%]	cell viability (Vero E6 [5]; 1000 nM) [%]	cell viability (Vero E6 [5]; 10000 nM) [%]	relative viability EC50 (Calu-3 [6]) [µM]	relative viability EC50 (U2OS [7]) [µM]	relative viability EC50 (Vero E6 [8]) [µM]	drug sensitivity score (Caco-2 [9])	drug sensitivity score (Calu-3 [10])	drug sensitivity score (HepG2 [11])	drug sensitivity score (U2OS [12])	drug sensitivity score (Vero E6 [13])	relative viability EC50 (HepG2 [14]) [µM]
C=CC(C)(C)c1cc(/C=C/C(=O)c2ccc(O)cc2)c(OC)cc1O [licochalcone-A]	92.4	83	105	88	70.8	96.1	100	106	98.1	91.7	99.9	100	74.4	99.2	78.4	95.7	96.5	100	95.8	88.7	103	101	90.2	98	102	> 10	> 10	> 10	2.8	0	1.5	0.1	0	
COc1ccc(C(C)(C)C)cc1CN[C@H]1C2CCN(CC2)[C@H]1C(c1ccccc1)c1ccccc1 [maropitant]	103	96.4	101	103	67.4	108	104	110	101	1.7	107	104	98.9	100	11.6	99.5	98.9	101	93.9	67.3	100	106	100	101	62.6	3.24			1.3	5.4	4.9	2.5	1.7	3.17
C[C@H](N)[C@H](O)c1cccc(O)c1 [metaraminol]						90.4	96.8	98.7	99.9	91.9	97.9	102	100	97.2	103						105	101	108	97.5	102	> 10		> 10		0	0		0	> 10
Cc1cccc(C)c1OCC(C)N (centres undefined) [mexiletine]																														0	0.1	0	0	
CCCCCCCCOc1ccccc1C(=O)Nc1ccc(C(=O)OCC[N+](C)(CC)CC)cc1 [otilonium]	89.1	99.4	97	97.5	74.7	97	104	91.1	96.7	89.3	109	96.2	108	96	83.8	101	106	98	101	90.7	103	97.2	106	97.8	94.1	> 10	> 10	> 10	1.4	0	0.7	0	0	> 10
